# Patent US20200085831A1, “NASAL COMPOSITIONS STIMULATING CILIARY ACTIVITY” (Innotesto BVBA, priority 2013, published 2020)
# Key:
# [1] = adult population, Nawrot et al. 2003, cited from earlier work
# ciliated cells = experiment: In vitro experiments with ciliated cells (ascorbic acid); type: cell-based; settings: several in vitro experiments
# Procedure: When ascorbic acid is added to the present disclosure composition, the pH of the final composition should be adapted to values between about 6-8 and preferably between about pH 7-7.5 by adding a small amount of sodium bicarbonate or other pH regulating agents.
smiles,measurement,setting,value
"Cn1c(=O)c2c(ncn2C)n(C)c1=O [Caffeine, 1,3,7-trimethylxanthine]",daily intake not associated with adverse effects,[1],< 400 mg per day
same,"daily intake not associated with adverse effects, per bodyweight",[1]; equivalent of the mg per day level,about 6 mg/kg bodyweight
O=C1O[C@H]([C@@H](O)CO)C(O)=C1O [ascorbic acid],effect on the ciliary beat frequency,ciliated cells,increases the ciliary beat frequency
